The values that follow are results of earlier work, collected in US20190367426A1, “LIQUID UREASE INHIBITOR FORMULATIONS” (YARA INTERNATIONAL ASA, priority 2017, published 2019).

The data set relates to rat.

Take `CCCCOCCOCCO` [DEGMBE, Diethylene glycol monobutyl ether]: the “toxicity oral rat LD50” value is reported as 5660 mg/kg.

Consider `COCCOCCO` [DEGMME, Diethylene glycol monomethyl ether], for which the “toxicity oral rat LD50” value is given as 6450 mg/kg.
